From US9474790B2, “Stable, protracted GLP-1/glucagon receptor co-agonists for medical use” (Novo Nordisk A/S, priority 2013, dated 2016)
Numbered stars: 1 amine (or outer) side, 2 acyl side, 3 side chain; on linkers, the order of the positions; unused ones are H or OH. Square brackets hold non-standard residues; d marks the D form. Side chains are listed from the residue outwards. Peptide text beside a SMILES is read from it. * marks the point of attachment. C18 diacid = O=C(O)CCCCCCCCCCCCCCCCC(=O)*; γGlu = O=C(O)[C@H](CCC(=O)[*:2])N[*:1]; Ac4c = NC1(C(=O)O)CCC1; AEEA = NCCOCCOCC(=O)O; Aib = CC(C)(N)C(=O)O

The compounds below were run against T1, human glucagon receptor (Homo sapiens, UniProt P47871) (assay: Glucagon receptor binding, 125I-glucagon displacement SPA on isolated membranes). Details: displacement of 125I-glucagon from membranes; read-out: IC50 GlucR.
T1 construct: expressed in transfected cells; host or cells: BHK cells (parent BHK570, CRE luciferase clone BHK/KZ10-20-48), clone pLJ6'-4-25
T1 sequence (P47871 26-477): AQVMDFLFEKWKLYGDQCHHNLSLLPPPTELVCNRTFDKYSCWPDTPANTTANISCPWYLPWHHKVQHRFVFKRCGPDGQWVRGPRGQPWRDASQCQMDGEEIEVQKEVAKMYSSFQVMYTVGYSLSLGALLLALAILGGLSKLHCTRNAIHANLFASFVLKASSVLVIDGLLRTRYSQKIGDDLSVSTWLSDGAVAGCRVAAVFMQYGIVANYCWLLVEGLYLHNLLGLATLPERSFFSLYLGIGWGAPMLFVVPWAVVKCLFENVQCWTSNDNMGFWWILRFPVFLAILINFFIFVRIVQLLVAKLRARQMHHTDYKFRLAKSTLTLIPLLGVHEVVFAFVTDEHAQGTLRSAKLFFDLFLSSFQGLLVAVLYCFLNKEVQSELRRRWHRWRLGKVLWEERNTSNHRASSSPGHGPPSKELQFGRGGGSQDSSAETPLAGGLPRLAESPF
In short: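 Membranes from BHK cells stably expressing human glucagon receptor incubated 2 h at 25 °C with [125I]-glucagon (25 μl of 480 pM solution) and serial compound dilutions in WGA SPA format, pH 7.4 buffer with 0.1% ovalbumin. Albumin at max 0.001% or 0.2% final. IC50 from non-linear regression.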

Question: `CC(C)C[C@H](NC(=O)[C@H](Cc1c[nH]c2ccccc12)NC(=O)[C@H](CCC(N)=O)NC(=O)[C@@H](NC(=O)[C@H](Cc1ccccc1)NC(=O)[C@H](CCC(=O)O)NC(=O)[C@H](CCCNC(=N)N)NC(=O)[C@H](C)NC(=O)[C@H](CCCNC(=N)N)NC(=O)[C@H](CCCNC(=N)N)NC(=O)C(C)(C)NC(=O)[C@H](CC(=O)O)NC(=O)[C@H](CC(C)C)NC(=O)[C@H](Cc1ccc(O)cc1)NC(=O)[C@H](CCCCN)NC(=O)[C@H](CO)NC(=O)[C@H](CC(C)C)NC(=O)[C@H](CC(=O)O)NC(=O)[C@H](CO)NC(=O)[C@@H](NC(=O)[C@H](Cc1ccccc1)NC(=O)[C@@H](NC(=O)CNC(=O)[C@H](CCC(N)=O)NC(=O)C(C)(C)NC(=O)[C@@H](N)Cc1c[nH]cn1)[C@@H](C)O)[C@@H](C)O)C(C)C)C(=O)N[C@@H](CC(C)C)C(=O)N[C@@H](CCCCNC(=O)CC[C@H](NC(=O)CC[C@H](NC(=O)COCCOCCNC(=O)COCCOCCNC(=O)CC[C@H](NC(=O)CCCCCCCCCCCCCCCCC(=O)O)C(=O)O)C(=O)O)C(=O)O)C(=O)N[C@H](C(N)=O)[C@@H](C)O` [Example 51, N^ε28-[(4S)-4-carboxy-4-[[(4S)-4-carboxy-4-[[2-[2-[2-[[2-[2-[2-[[(4S)-4-carboxy-4-(17-carboxyheptadecanoylamino)butanoyl]amino]ethoxy]ethoxy]acetyl]amino]ethoxy]ethoxy]acetyl]amino]butanoyl]amino]butanoyl]-[Aib2,Leu10,Aib16,Arg20,Glu21,Leu27,Lys28]-Glucagon amide] (H-H[Aib]QGTFTSDLSKYLD[Aib]RRAREFVQWLLK([γGlu-γGlu-AEEA-AEEA-γGlu-C18 diacid])T-NH2; N-terminus assumed) was tested. Which IC50 did it give?
Answer: Its IC50 is 1.4 nM.

Question: Which IC50 does the source give for `CC(C)C[C@H](NC(=O)[C@H](Cc1ccc(O)cc1)NC(=O)[C@H](CCCCN)NC(=O)[C@H](CO)NC(=O)[C@H](CC(C)C)NC(=O)[C@H](CC(=O)O)NC(=O)[C@H](CO)NC(=O)[C@@H](NC(=O)[C@H](Cc1ccccc1)NC(=O)[C@@H](NC(=O)CNC(=O)[C@H](CCC(N)=O)NC(=O)C(C)(C)NC(=O)[C@@H](N)Cc1c[nH]cn1)[C@@H](C)O)[C@@H](C)O)C(=O)N[C@@H](CCC(=O)O)C(=O)N[C@@H](CO)C(=O)N[C@@H](CCCCN)C(=O)N[C@@H](CCCNC(=N)N)C(=O)N[C@@H](C)C(=O)N[C@@H](CCCNC(=N)N)C(=O)N[C@@H](CCC(=O)O)C(=O)N[C@@H](Cc1ccccc1)C(=O)N[C@H](C(=O)N[C@@H](CCC(N)=O)C(=O)N[C@@H](Cc1c[nH]c2ccccc12)C(=O)N[C@@H](CC(C)C)C(=O)N[C@@H](CC(C)C)C(=O)N[C@@H](CCCCNC(=O)CC[C@H](NC(=O)CC[C@H](NC(=O)[C@H](CO)NC(=O)[C@H](CCC(=O)O)NC(=O)[C@H](CO)NC(=O)CC[C@H](NC(=O)CC[C@H](NC(=O)CCCCCCCCCCCCCCCCC(=O)O)C(=O)O)C(=O)O)C(=O)O)C(=O)O)C(=O)N[C@H](C(N)=O)[C@@H](C)O)C(C)C` [Example 54, N^ε28-[(4S)-4-carboxy-4-[[(4S)-4-carboxy-4-[[(2S)-2-[[(2S)-4-carboxy-2-[[(2S)-2-[[(4S)-4-carboxy-4-[[(4S)-4-carboxy-4-(17-carboxyheptadecanoylamino)butanoyl]amino]butanoyl]amino]-3-hydroxypropanoyl]amino]butanoyl]amino]-3-hydroxypropanoyl]amino]butanoyl]amino]butanoyl]-[Aib2,Leu10,Glu15,Lys17,Arg20,Glu21,Leu27,Lys28]-Glucagon amide] (H-H[Aib]QGTFTSDLSKYLESKRAREFVQWLLK([γGlu-γGlu-Ser-Glu-Ser-γGlu-γGlu-C18 diacid])T-NH2; N-terminus assumed) here?
Answer: Its IC50 is 1.7 nM.

Question: How did the IC50 turn out when `CC(C)C[C@H](NC(=O)[C@H](Cc1ccc(O)cc1)NC(=O)[C@H](CCCNC(=N)N)NC(=O)[C@H](CO)NC(=O)[C@H](CC(C)C)NC(=O)[C@H](CC(=O)O)NC(=O)[C@H](CO)NC(=O)[C@@H](NC(=O)[C@H](Cc1ccccc1)NC(=O)[C@@H](NC(=O)CNC(=O)[C@H](CCC(N)=O)NC(=O)C1(NC(=O)[C@@H](N)Cc2c[nH]cn2)CCC1)[C@@H](C)O)[C@@H](C)O)C(=O)N[C@@H](CCC(=O)O)C(=O)N[C@@H](CO)C(=O)N[C@@H](CCCNC(=N)N)C(=O)N[C@@H](CCCNC(=N)N)C(=O)N[C@@H](C)C(=O)N[C@@H](CCCNC(=N)N)C(=O)N[C@@H](CCC(=O)O)C(=O)N[C@@H](Cc1ccccc1)C(=O)N[C@H](C(=O)N[C@@H](CCC(N)=O)C(=O)N[C@@H](Cc1c[nH]c2ccccc12)C(=O)N[C@@H](CC(C)C)C(=O)N[C@@H](CC(C)C)C(=O)N[C@@H](CCCCNC(=O)CC[C@H](NC(=O)CC[C@H](NC(=O)COCCOCCNC(=O)COCCOCCNC(=O)CC[C@H](NC(=O)CC[C@H](NC(=O)CCCCCCCCCCCCCCCCC(=O)O)C(=O)O)C(=O)O)C(=O)O)C(=O)O)C(=O)N[C@H](C(N)=O)[C@@H](C)O)C(C)C` [Example 59, N^ε28-[(4S)-4-carboxy-4-[[(4S)-4-carboxy-4-[[2-[2-[2-[[2-[2-[2-[[(4S)-4-carboxy-4-[[(4S)-4-carboxy-4-(17-carboxyheptadecanoylamino)butanoyl]amino]butanoyl]amino]ethoxy]ethoxy]acetyl]amino]ethoxy]ethoxy]acetyl]amino]butanoyl]amino]butanoyl]-[Acb2,Leu10,Arg12,Glu15,Arg20,Glu21,Leu27,Lys28]-Glucagon amide] (H-H[Ac4c]QGTFTSDLSRYLESRRAREFVQWLLK([γGlu-γGlu-AEEA-AEEA-γGlu-γGlu-C18 diacid])T-NH2; N-terminus assumed) was run?
Answer: Its IC50 is 1.4 nM.

Question: For `CC(C)C[C@H](NC(=O)[C@H](Cc1ccc(O)cc1)NC(=O)[C@H](CCCCN)NC(=O)[C@H](CO)NC(=O)[C@H](CC(C)C)NC(=O)[C@H](CC(=O)O)NC(=O)[C@H](CO)NC(=O)[C@@H](NC(=O)[C@H](Cc1ccccc1)NC(=O)[C@@H](NC(=O)CNC(=O)[C@H](CCC(N)=O)NC(=O)C(C)(C)NC(=O)[C@@H](N)Cc1c[nH]cn1)[C@@H](C)O)[C@@H](C)O)C(=O)N[C@@H](CCC(=O)O)C(=O)N[C@@H](CO)C(=O)N[C@@H](CCCNC(=N)N)C(=O)N[C@@H](CCCNC(=N)N)C(=O)N[C@@H](C)C(=O)N[C@@H](CCCNC(=N)N)C(=O)N[C@@H](CCC(=O)O)C(=O)N[C@@H](Cc1ccccc1)C(=O)N[C@H](C(=O)N[C@@H](CCC(N)=O)C(=O)N[C@@H](Cc1c[nH]c2ccccc12)C(=O)N[C@@H](CC(C)C)C(=O)N[C@@H](CC(C)C)C(=O)N[C@@H](CCCCNC(=O)CC[C@H](NC(=O)CC[C@H](NC(=O)COCCOCCNC(=O)COCCOCCNC(=O)CC[C@H](NC(=O)CC[C@H](NC(=O)CCCCCCCCCCCCCCCCC(=O)O)C(=O)O)C(=O)O)C(=O)O)C(=O)O)C(=O)N[C@H](C(N)=O)[C@@H](C)O)C(C)C` [Example 60, N^ε28-[(4S)-4-carboxy-4-[[(4S)-4-carboxy-4-[[2-[2-[2-[[2-[2-[2-[[(4S)-4-carboxy-4-[[(4S)-4-carboxy-4-(17-carboxyheptadecanoylamino)butanoyl]amino]butanoyl]amino]ethoxy]ethoxy]acetyl]amino]ethoxy]ethoxy]acetyl]amino]butanoyl]amino]butanoyl]-[Aib2,Leu10,Glu15,Arg20,Glu21,Leu27,Lys28]-Glucagon amide] (H-H[Aib]QGTFTSDLSKYLESRRAREFVQWLLK([γGlu-γGlu-AEEA-AEEA-γGlu-γGlu-C18 diacid])T-NH2; N-terminus assumed), which IC50 is on record?
Answer: Its IC50 is 4 nM.
